Source: patent US9040663B2, “Melanocortin receptor-specific peptides” (AstraZeneca AB, priority 2009, dated 2015)
Like-named read-outs stand apart in the source and are kept apart here.

Legend:
hMC4-R [1] = molecular target: T1, hMC4-R (Homo sapiens (Human), UniProt P32245); assay: Competitive inhibition binding assay using [I125]-NDP-α-MSH, hMC4-R; settings: membranes of HEK-293 cells expressing recombinant hMC4-R, read-out: MC4-R Ki
Method: 7.1 Competitive Inhibition Assay using [I^125]-NDP-α-MSH.
A competitive inhibition binding assay was performed for exemplified peptides according to the invention using membrane homogenates prepared from HEK-293 cells that express recombinant hMC4-R, hMC3-R, or hMC5-R, and from B-16 mouse melanoma cells (containing endogenous MC1-R). In some instances, HEK-293 cells that express recombinant hMC1-R were employed. Assays were performed in 96 well GF/B Millipore multiscreen filtration plates (MAFB NOB10) pre-coated with 0.5% bovine serum albumin (Fraction V). Membrane homogenates were incubated with 0.2 nM (for hMC4-R) 0.4 nM (for MC3-R and MC5-R) or 0.1 nM (for mouse B16 MC1-R or hMC1-R) [I^125]-NDP-α-MSH (Perkin Elmer) and increasing concentrations of test peptides of the present invention in buffer containing 25 mM HEPES buffer (pH 7.5) with 100 mM NaCl, 2 mM CaCl2, 2 mM MgCl2, 0.3 mM 1,10-phenanthroline, and 0.2% bovine serum albumin. After incubation for 60 minutes at 37° C., the assay mixture was filtered and the membranes washed three times with ice-cold buffer. Filters were dried and counted in a gamma counter for bound radioactivity. […] Maximal specific binding (100%) was defined as the difference in radioactivity (cpm) bound to cell membranes in the absence and presence of 1 μM NDP-α-MSH. […] Each assay was conducted in triplicate and the actual mean values are described, with results less than 0% reported as 0%. Ki values for test peptides of the present invention were determined using Graph-Pad Prism® curve-fitting software.

hMC4-R [2] = molecular target: T1, hMC4-R; assay: High and low density hMC4-R functional assay (cAMP, HEK293-T-REx-MC4-R cells); assay type: cell-based; settings: for Emax: NDP-α-MSH = 100%, read-out: Intrinsic Activity (%)
Method: The cells were then dispensed into 96-well plates (BD 353916) in 198 μL (about 5×10^4) cells/well and incubated for 10 minutes at 37° C. The compound to be tested was diluted with DMSO to a final concentration of 1 mM. […] 120 μL of the 1 mM compound stock was pipetted in the second column on the plate. […] All assay samples were run in duplicate (i.e. each sample was in two low dox and two high dox plates, respectively). The plates were gently shaken and incubated for 15 minutes at 37° C.

[3] = 0.1 ng/mL Doxycycline (low density hMC4-R system)
[4] = 10 ng/mL Doxycycline (high density hMC4-R system)

T1 sequence (P32245 whole entry): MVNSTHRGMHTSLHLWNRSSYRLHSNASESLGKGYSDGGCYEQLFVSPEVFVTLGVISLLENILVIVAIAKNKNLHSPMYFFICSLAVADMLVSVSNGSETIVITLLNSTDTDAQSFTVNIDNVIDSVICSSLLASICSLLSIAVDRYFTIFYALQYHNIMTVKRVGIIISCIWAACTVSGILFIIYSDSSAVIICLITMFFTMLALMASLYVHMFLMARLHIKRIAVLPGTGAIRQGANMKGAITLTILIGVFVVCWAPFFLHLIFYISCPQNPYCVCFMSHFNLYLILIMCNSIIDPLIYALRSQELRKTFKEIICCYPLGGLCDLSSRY

SMILES	Ki (hMC4-R [1])	EC50 (hMC4-R [2]; [3])	Emax (hMC4-R [2]; [3])	EC50 (hMC4-R [2]; [4])	Emax (hMC4-R [2]; [4])
CC(=O)N[C@@H](CCCNC(=N)N)C(=O)N[C@H]1CCC(=O)NCCC[C@@H](C(N)=O)NC(=O)[C@H](Cc2c[nH]c3ccccc23)NC(=O)[C@H](CCCNC(=N)N)NC(=O)[C@@H](Cc2cccc(Cl)c2)NC(=O)[C@H](CCN)NC1=O [Example 2, Ac-Arg-cyclo(Glu-Dab-D-Phe(3-Cl)-Arg-Trp-Orn)-NH2]	0.75 nM	0.56 nM	36%	0.095 nM	99%
CC(=O)N[C@@H](CCCNC(=N)N)C(=O)N[C@H]1CCC(=O)NCCC[C@@H](C(N)=O)NC(=O)[C@H](Cc2c[nH]c3ccccc23)NC(=O)[C@H](CCCNC(=N)N)NC(=O)[C@@H](Cc2ccc(C#N)cc2)NC(=O)[C@H](CCN)NC1=O [Example 7, Ac-Arg-cyclo(Glu-Dab-D-Phe(4-CN)-Arg-Trp-Orn)-NH2]	0.833 nM	0.3 nM	48%	0.135 nM	100%
CC(=O)N[C@@H](CCCNC(=N)N)C(=O)N[C@H]1CCC(=O)NCCC[C@@H](C(N)=O)NC(=O)[C@H](Cc2c[nH]c3ccccc23)NC(=O)[C@H](CCCNC(=N)N)NC(=O)[C@@H](Cc2ccc(O)cc2)NC(=O)[C@H](CCN)NC1=O [Example 8, Ac-Arg-cyclo(Glu-Dab-D-Tyr-Arg-Trp-Orn)-NH2]	75 nM	48 nM	71%	0.55 nM	87%
CC(=O)N[C@@H](CCCNC(=N)N)C(=O)N[C@H]1CCC(=O)NCCC[C@@H](C(N)=O)NC(=O)[C@H](Cc2c[nH]c3ccccc23)NC(=O)[C@H](CCCNC(=N)N)NC(=O)[C@@H](Cc2ccccc2F)NC(=O)[C@H](CCN)NC1=O [Example 9, Ac-Arg-cyclo(Glu-Dab-D-Phe(2-F)-Arg-Trp-Orn)-NH2]	0.7 nM	0.09 nM	91%	0.035 nM	89%
CC(=O)N[C@@H](CCCNC(=N)N)C(=O)N[C@H]1CCC(=O)NCCC[C@@H](C(N)=O)NC(=O)[C@H](Cc2c[nH]c3ccccc23)NC(=O)[C@H](CCCNC(=N)N)NC(=O)[C@@H](Cc2ccccc2C#N)NC(=O)[C@H](CCN)NC1=O [Example 12, Ac-Arg-cyclo(Glu-Dab-D-Phe(2-CN)-Arg-Trp-Orn)-NH2]	45 nM	34 nM	64%	0.5 nM	97%
CC(=O)N[C@@H](CCCNC(=N)N)C(=O)N[C@H]1CCC(=O)NCCC[C@@H](C(N)=O)NC(=O)[C@H](Cc2c[nH]c3ccccc23)NC(=O)[C@H](CCCNC(=N)N)NC(=O)[C@@H](Cc2cccc(C(F)(F)F)c2)NC(=O)[C@H](CCN)NC1=O [Example 14, Ac-Arg-cyclo(Glu-Dab-D-Phe(3-CF3)-Arg-Trp-Orn)-NH2]	0.95 nM	8 nM	16%	0.4 nM	93%
CC(=O)N[C@@H](CCCNC(=N)N)C(=O)N[C@H]1CCC(=O)NCCC[C@@H](C(N)=O)NC(=O)[C@H](Cc2c[nH]c3ccccc23)NC(=O)[C@H](CCCNC(=N)N)NC(=O)[C@@H](Cc2ccc(C)cc2)NC(=O)[C@H](CCN)NC1=O [Example 15, Ac-Arg-cyclo(Glu-Dab-D-Phe(4-Me)-Arg-Trp-Orn)-NH2]	0.145 nM	0.165 nM	16%	0.2 nM	90%
CC(=O)N[C@@H](CCCNC(=N)N)C(=O)N[C@H]1CCC(=O)NCCC[C@@H](C(N)=O)NC(=O)[C@H](Cc2c[nH]c3ccccc23)NC(=O)[C@H](CCCNC(=N)N)NC(=O)[C@@H](Cc2cc(F)cc(F)c2)NC(=O)[C@H](CCN)NC1=O [Example 17, Ac-Arg-cyclo(Glu-Dab-D-Phe(3,5-diF)-Arg-Trp-Orn)-NH2]	2 nM	0.95 nM	64%	0.12 nM	95%
CC(=O)N[C@@H](CCCNC(=N)N)C(=O)N[C@H]1CCC(=O)NCCC[C@@H](C(N)=O)NC(=O)[C@H](Cc2c[nH]c3ccccc23)NC(=O)[C@H](CCCNC(=N)N)NC(=O)[C@@H](Cc2ccccc2C)NC(=O)[C@H](CCN)NC1=O [Example 18, Ac-Arg-cyclo(Glu-Dab-D-Phe(2-Me)-Arg-Trp-Orn)-NH2]	0.5 nM	0.14 nM	83%	0.085 nM	97%
CC(=O)N[C@@H](CCCNC(=N)N)C(=O)N[C@H]1CCC(=O)NCCC[C@@H](C(N)=O)NC(=O)[C@H](Cc2c[nH]c3ccccc23)NC(=O)[C@H](CCCNC(=N)N)NC(=O)[C@@H](Cc2cccc(C)c2)NC(=O)[C@H](CCN)NC1=O [Example 19, Ac-Arg-cyclo(Glu-Dab-D-Phe(3-Me)-Arg-Trp-Orn)-NH2]	0.4 nM	0.42 nM	35%	0.22 nM	97%
CC(=O)N[C@@H](CCCNC(=N)N)C(=O)N[C@H]1CCC(=O)NCCC[C@@H](C(N)=O)NC(=O)[C@H](Cc2c[nH]c3ccccc23)NC(=O)[C@H](CCCNC(=N)N)NC(=O)[C@@H](Cc2ccc(C(F)(F)F)cc2)NC(=O)[C@H](CCN)NC1=O [Example 20, Ac-Arg-cyclo(Glu-Dab-D-Phe(4-CF3)-Arg-Trp-Orn)-NH2]	0.06 nM	–	0.5%	0.75 nM	53%
CC(=O)N[C@@H](CCCNC(=N)N)C(=O)N[C@H]1CCC(=O)NCCC[C@@H](C(N)=O)NC(=O)[C@H](Cc2c[nH]c3ccccc23)NC(=O)[C@H](CCCNC(=N)N)NC(=O)[C@@H](Cc2ccc(C)cc2C)NC(=O)[C@H](CCN)NC1=O [Example 21, Ac-Arg-cyclo(Glu-Dab-D-Phe(2,4-diMe)-Arg-Trp-Orn)-NH2]	0.085 nM	–	8%	0.5 nM	97%
CC(=O)N[C@@H](CCCNC(=N)N)C(=O)N[C@H]1CCC(=O)NCCC[C@@H](C(N)=O)NC(=O)[C@H](Cc2c[nH]c3ccccc23)NC(=O)[C@H](CCCNC(=N)N)NC(=O)[C@@H](Cc2ccccc2[N+](=O)[O-])NC(=O)[C@H](CCN)NC1=O [Example 22, Ac-Arg-cyclo(Glu-Dab-D-Phe(2-NO2)-Arg-Trp-Orn)-NH2]	11 nM	3 nM	78%	0.2 nM	93%
CC(=O)N[C@@H](CCCNC(=N)N)C(=O)N[C@H]1CCC(=O)NCCC[C@@H](C(N)=O)NC(=O)[C@H](Cc2c[nH]c3ccccc23)NC(=O)[C@H](CCCNC(=N)N)NC(=O)[C@@H](Cc2cccc([N+](=O)[O-])c2)NC(=O)[C@H](CCN)NC1=O [Example 23, Ac-Arg-cyclo(Glu-Dab-D-Phe(3-NO2)-Arg-Trp-Orn)-NH2]	0.7 nM	2 nM	17%	0.55 nM	95%
CC(=O)N[C@@H](CCCNC(=N)N)C(=O)N[C@H]1CCC(=O)NCCC[C@@H](C(N)=O)NC(=O)[C@H](Cc2c[nH]c3ccccc23)NC(=O)[C@H](CCCNC(=N)N)NC(=O)[C@@H](Cc2ccc([N+](=O)[O-])cc2)NC(=O)[C@H](CCN)NC1=O [Example 24, Ac-Arg-cyclo(Glu-Dab-D-Phe(4-NO2)-Arg-Trp-Orn)-NH2]	0.45 nM	0.7 nM	15%	0.45 nM	99%
